Measurements from patent publication US20110044938A1 (NYCOMED GMBH, priority 2006, published 2011).

What was measured:
[1] = test system: RKO (RKOp27) human colon adenocarcinoma cells; assay: Alamar Blue cell viability assay, anti-proliferative/cytotoxic activity on proliferating RKO subclones; type: cell-based; conditions: RKOp27, 72 h, RKO p27 uninduced (proliferating) cells, value = class bound given in Table A, read-out: −logIC50 RKO p27 uninduced (proliferating) (converted)
Method in brief: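 RKOp27 subclones (5000 cells/well) were exposed 24 h after seeding to semi-log compound dilutions in DMEM with 10% FCS, in quadruplicate, for 72 h at 37 °C. Viability was read by Alamar Blue fluorescence (544/590 nm) relative to untreated cells (1% DMSO medium). IC50 came from concentration-effect curves and is reported as −log IC50 [mol/l].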

[2] = test system: subclones of RKO colon adenocarcinoma cells (RKOp27 or RKOp21) arrested by Ponasterone A; assay: Alamar Blue cell viability assay, cell cycle specific mode of action: cells arrested by ectopic p27Kip1 induced by Ponasterone A versus proliferating cells; type: cell-based; conditions: Homo sapiens, RKO p27 induced (arrested) cells, 10 μM Ponasterone A, 72 hours, value = class bound given in Table A, read-out: −logIC50 RKO p27 induced (arrested) (converted)
Method in brief: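 RKOp27 or RKOp21 cells, 15000/well in DMEM/10% FCS, either arrested by p27Kip1 induced with 10 μM Ponasterone A or proliferating without inducer; compound added after 24 h, 72 h at 37° C. Alamar Blue fluorescence (544/590 nm), viability as % of untreated cells; −log IC50 reported.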

| IC50 [2] [nM] | Compound | IC50 [1] [nM] |
| --- | --- | --- |
| ≥ 100000 | COCCNC(=O)OC1CCc2c(sc(NC(=O)CCc3cccc(OC)c3)c2C#N)C1 (stereo not drawn) [Example 218, (2-Methoxy-ethyl)-carbamic acid 3-cyano-2-[3-(3-methoxy-phenyl)-propanoylamino]-4,5,6,7-tetrahydro-benzo[b]thiophen-6-yl ester] | ≤ 501 |
| ≥ 100000 | COc1cccc(CCC(=O)Nc2sc3c(c2C#N)CCC(OC(=O)OCc2cccnc2)C3)c1 (stereo not drawn) [Example 219, Carbonic acid 3-cyano-2-[3-(3-methoxy-phenyl)-propanoylamino]-4,5,6,7-tetrahydro-benzo[b]thiophen-6-yl ester pyridin-3-ylmethyl ester] | 501 to 2000 |
| ≥ 100000 | COc1cccc(CCC(=O)Nc2sc3c(c2C#N)CCC(OC(=O)NCC2CCOCC2)C3)c1 (stereo not drawn) [Example 220] | 501 to 2000 |
| ≥ 100000 | COc1cccc(CCC(=O)Nc2sc3c(c2C#N)CCC(OC(=O)NCc2ccnn2C)C3)c1 (stereo not drawn) [Example 221, (2-Methyl-2H-pyrazol-3-ylmethyl)-carbamic acid 3-cyano-2-[3-(3-methoxy-phenyl)-propanoylamino]-4,5,6,7-tetrahydro-benzo[b]thiophen-6-yl ester] | ≤ 501 |
| ≥ 100000 | COc1cccc(CCC(=O)Nc2sc3c(c2C#N)CCC(OC(=O)NCc2cn(C)cn2)C3)c1 (stereo not drawn) [Example 222, (1-Methyl-1H-imidazol-4-ylmethyl)-carbamic acid 3-cyano-2-[3-(3-methoxy-phenyl)-propanoylamino]-4,5,6,7-tetrahydro-benzo[b]thiophen-6-yl ester] | 501 to 2000 |
| ≥ 100000 | COc1cccc(CCC(=O)Nc2sc3c(c2C#N)CCC(OC(=O)NCc2cnn(C)c2)C3)c1 (stereo not drawn) [Example 223, (1-Methyl-1H-pyrazol-4-ylmethyl)-carbamic acid 3-cyano-2-[3-(3-methoxy-phenyl)-propanoylamino]-4,5,6,7-tetrahydro-benzo[b]thiophen-6-yl ester] | ≤ 501 |
| ≥ 100000 | COc1cccc(CCC(=O)Nc2sc3c(c2C#N)CCC(OC(=O)NCc2cc(C)on2)C3)c1 (stereo not drawn) [Example 224, (5-Methyl-isoxazol-3-ylmethyl)-carbamic acid 3-cyano-2-[3-(3-methoxy-phenyl)-propanoylamino]-4,5,6,7-tetrahydro-benzo[b]thiophen-6-yl ester] | 501 to 2000 |
| ≥ 100000 | COc1cccc(CCC(=O)Nc2sc3c(c2C#N)CCC(OC(=O)NCC2CCCO2)C3)c1 (stereo not drawn) [Example 225, (Tetrahydro-furan-2-ylmethyl)-carbamic acid 3-cyano-2-[3-(3-methoxy-phenyl)-propanoylamino]-4,5,6,7-tetrahydro-benzo[b]thiophen-6-yl ester] | 501 to 2000 |
| ≥ 100000 | COc1cccc(CCC(=O)Nc2sc3c(c2C#N)CCC(OC(=O)NCc2cc(C)nn2C)C3)c1 (stereo not drawn) [Example 226, (2,5-Dimethyl-2H-pyrazol-3-ylmethyl)-carbamic acid 3-cyano-2-[3-(3-methoxy-phenyl)-propanoylamino]-4,5,6,7-tetrahydro-benzo[b]thiophen-6-yl ester] | ≤ 501 |
| ≥ 100000 | COc1cccc(CCC(=O)Nc2sc3c(c2C#N)CCC(OC(=O)NCc2cnoc2C)C3)c1 (stereo not drawn) [Example 227, (5-Methyl-isoxazol-4-ylmethyl)-carbamic acid 3-cyano-2-[3-(3-methoxy-phenyl)-propanoylamino]-4,5,6,7-tetrahydro-benzo[b]thiophen-6-yl ester] | ≤ 501 |
| ≥ 100000 | COc1cccc(CCC(=O)Nc2sc3c(c2C#N)CCC(OC(=O)NCc2conc2C)C3)c1 (stereo not drawn) [Example 228, (3-Methyl-isoxazol-4-ylmethyl)-carbamic acid 3-cyano-2-[3-(3-methoxy-phenyl)-propanoylamino]-4,5,6,7-tetrahydro-benzo[b]thiophen-6-yl ester] | ≤ 501 |
| ≥ 100000 | COc1cccc(CCC(=O)Nc2sc3c(c2C#N)CCC(OC(=O)NCc2ccno2)C3)c1 (stereo not drawn) [Example 229, Isoxazol-5-ylmethyl-carbamic acid 3-cyano-2-[3-(3-methoxy-phenyl)-propanoylamino]-4,5,6,7-tetrahydro-benzo[b]thiophen-6-yl ester] | 501 to 2000 |
| ≥ 100000 | COc1cccc(CCC(=O)Nc2sc3c(c2C#N)CCC(OC(=O)NCc2cc(C)no2)C3)c1 (stereo not drawn) [Example 230, (3-Methyl-isoxazol-5-ylmethyl)-carbamic acid 3-cyano-2-[3-(3-methoxy-phenyl)-propanoylamino]-4,5,6,7-tetrahydro-benzo[b]thiophen-6-yl ester] | 501 to 2000 |
| ≥ 100000 | COc1cccc(CCC(=O)Nc2sc3c(c2C#N)CCC(OC(=O)N2CCOCC2)C3)c1 (stereo not drawn) [Example 231, Morpholine-4-carboxylic acid 3-cyano-2-[3-(3-methoxy-phenyl)-propanoylamino]-4,5,6,7-tetrahydro-benzo[b]thiophen-6-yl ester] | ≤ 501 |
| ≥ 100000 | COc1cccc(CCC(=O)Nc2sc3c(c2C#N)CCC(OC(=O)NCc2csc(C)n2)C3)c1 (stereo not drawn) [Example 232, (2-Methyl-thiazol-4-ylmethyl)-carbamic acid 3-cyano-2-[3-(3-methoxy-phenyl)-propanoylamino]-4,5,6,7-tetrahydro-benzo[b]thiophen-6-yl ester] | 501 to 2000 |
| ≥ 100000 | CNC(=O)OCC1CCc2c(sc(NC(=O)CCc3cccc(OC)c3)c2C#N)C1 (stereo not drawn) [Example 233, Methyl-carbamic acid 3-cyano-2-[3-(3-methoxy-phenyl)-propanoylamino]-4,5,6,7-tetrahydro-benzo[b]thiophen-6-ylmethyl ester] | ≤ 501 |
| ≥ 100000 | COCCNC(=O)OCC1CCc2c(sc(NC(=O)CCc3cccc(OC)c3)c2C#N)C1 (stereo not drawn) [Example 234, (2-Methoxy-ethyl)-carbamic acid 3-cyano-2-[3-(3-methoxy-phenyl)-propanoylamino]-4,5,6,7-tetrahydro-benzo[b]thiophen-6-ylmethyl ester] | ≤ 501 |
| ≥ 100000 | COc1cccc(CCC(=O)Nc2sc3c(c2C#N)CCC(COC(=O)NCc2ccccn2)C3)c1 (stereo not drawn) [Example 235, Pyridin-2-ylmethyl-carbamic acid 3-cyano-2-[3-(3-methoxy-phenyl)-propanoylamino]-4,5,6,7-tetrahydro-benzo[b]thiophen-6-ylmethyl ester] | 501 to 2000 |
| ≥ 100000 | COc1cccc(CCC(=O)Nc2sc3c(c2C#N)CCC(COC(=O)NCCn2ccnc2)C3)c1 (stereo not drawn) [Example 236, (2-Imidazol-1-yl-ethyl)-carbamic acid 3-cyano-2-[3-(3-methoxy-phenyl)-propanoylamino]-4,5,6,7-tetrahydro-benzo[b]thiophen-6-ylmethyl ester] | 501 to 2000 |
| ≥ 100000 | COc1cccc(CCC(=O)Nc2sc3c(c2C#N)CCC(COC(=O)NCc2ccnn2C)C3)c1 (stereo not drawn) [Example 237, (2-Methyl-2H-pyrazol-3-ylmethyl)-carbamic acid 3-cyano-2-[3-(3-methoxy-phenyl)-propanoylamino]-4,5,6,7-tetrahydro-benzo[b]thiophen-6-ylmethyl ester] | 501 to 2000 |
| ≥ 100000 | COc1cccc(CCC(=O)Nc2sc3c(c2C#N)CCC(COC(=O)NCc2cn(C)cn2)C3)c1 (stereo not drawn) [Example 238, (1-Methyl-1H-imidazol-4-ylmethyl)-carbamic acid 3-cyano-2-[3-(3-methoxy-phenyl)-propanoylamino]-4,5,6,7-tetrahydro-benzo[b]thiophen-6-ylmethyl ester] | 501 to 2000 |
